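Method: 48-hour compound exposure of cells in 96-well plates, five concentrations, linear interpolation of endpoints. GI50 marks 50% less growth.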 Active and inactive are the calls of the source. Rule as the data show it: active = GI50 up to about 1.1 µM and inactive = higher.
Assays:
Experiment in all cases: NCI-60 cell line screen, 48 h
DMS-273 = test system: DMS-273
SF-268 = test system: SF-268
IGROV-1 = test system: IGROV-1
HCT-15 = test system: HCT-15
EKVX = test system: EKVX
NCI-H522 = test system: NCI-H522
LOX IMVI = test system: LOX IMVI
U-251 = test system: U-251
NCI-H460 = test system: NCI-H460
OVCAR-4 = test system: OVCAR-4
M19-MEL = test system: M19-MEL
HCT-116 = test system: HCT-116
786-0 = test system: 786-0
COLO 205 = test system: COLO 205
SW-620 = test system: SW-620
RXF 393 = test system: RXF 393
CCRF-CEM = test system: CCRF-CEM
SNB-78 = test system: SNB-78
DLD-1 = test system: DLD-1
NCI-H226 = test system: NCI-H226
HOP-62 = test system: HOP-62
HL-60 = test system: HL-60
XF498 = test system: XF498
HT-29 = test system: HT-29
SK-MEL-28 = test system: SK-MEL-28
KM-20L2 = test system: KM-20L2
HCC 2998 = test system: HCC 2998
NCI-H23 = test system: NCI-H23
ACHN = test system: ACHN
UACC-257 = test system: UACC-257
SN12C = test system: SN12C
A549 = test system: A549
A498 = test system: A498
OVCAR-3 = test system: OVCAR-3
LXFL 529 = test system: LXFL 529
MOLT-4 = test system: MOLT-4
K562 = test system: K562
SF-295 = test system: SF-295
DMS-114 = test system: DMS-114
SR = test system: SR
OVCAR-5 = test system: OVCAR-5
KM12 = test system: KM12
SNB-19 = test system: SNB-19
UO-31 = test system: UO-31
SK-MEL-5 = test system: SK-MEL-5
TK-10 = test system: TK-10
OVCAR-8 = test system: OVCAR-8
RPMI-8226 = test system: RPMI-8226
Malme-3M = test system: Malme-3M
SK-OV-3 = test system: SK-OV-3
SF-539 = test system: SF-539
UACC-62 = test system: UACC-62
SK-MEL-2 = test system: SK-MEL-2
M14 = test system: M14
SNB-75 = test system: SNB-75
HOP-92 = test system: HOP-92
CAKI-1 = test system: CAKI-1

Measured: GI50

Nc1nc(SCc2ccc([N+](=O)[O-])cc2)nc2c1ncn2C1OC(CO)C(O)C1O (configuration not stated)
inactive: DMS-273 > 100 µM | SF-268 > 100 µM | IGROV-1 > 100 µM | EKVX > 100 µM | NCI-H522 89.5 µM | LOX IMVI > 100 µM | U-251 > 100 µM | NCI-H460 > 100 µM | OVCAR-4 > 100 µM | M19-MEL > 100 µM | HCT-116 > 100 µM | 786-0 > 100 µM | COLO 205 > 100 µM | SW-620 > 100 µM | RXF 393 > 100 µM | CCRF-CEM > 100 µM | SNB-78 > 100 µM | DLD-1 > 100 µM | NCI-H226 > 100 µM | HOP-62 > 100 µM | HL-60 > 100 µM | XF498 > 100 µM | HT-29 > 100 µM | SK-MEL-28 > 100 µM | KM-20L2 > 100 µM | HCC 2998 > 100 µM | NCI-H23 > 100 µM | ACHN > 100 µM | UACC-257 > 100 µM | SN12C 96.6 µM | A549 > 100 µM | A498 > 100 µM | OVCAR-3 > 100 µM | LXFL 529 78.5 µM | MOLT-4 > 100 µM | K562 > 100 µM | SF-295 > 100 µM | DMS-114 > 100 µM | SR > 100 µM | OVCAR-5 > 100 µM | KM12 > 100 µM | SNB-19 > 100 µM | UO-31 > 100 µM | SK-MEL-5 > 100 µM | TK-10 > 100 µM | OVCAR-8 > 100 µM | RPMI-8226 > 100 µM | Malme-3M > 100 µM
> 100 µM: HCT-15

Cc1cccc(C)c1NC(=O)C(=O)Cc1nc2ccccc2s1
inactive: DMS-273 > 100 µM | SF-268 > 100 µM | IGROV-1 > 100 µM | EKVX > 100 µM | NCI-H522 > 100 µM | SK-OV-3 > 100 µM | LOX IMVI > 100 µM | U-251 > 100 µM | NCI-H460 > 100 µM | OVCAR-4 > 100 µM | M19-MEL > 100 µM | SF-539 > 100 µM | HCT-116 > 100 µM | 786-0 > 100 µM | COLO 205 > 100 µM | SW-620 > 100 µM | RXF 393 50.9 µM | CCRF-CEM > 100 µM | SNB-78 > 100 µM | DLD-1 > 100 µM | NCI-H226 > 100 µM | HOP-62 > 100 µM | HL-60 > 100 µM | XF498 > 100 µM | HT-29 > 100 µM | SK-MEL-28 > 100 µM | UACC-62 > 100 µM | KM-20L2 > 100 µM | HCC 2998 > 100 µM | NCI-H23 > 100 µM | ACHN > 100 µM | UACC-257 > 100 µM | SN12C > 100 µM | SK-MEL-2 > 100 µM | A549 > 100 µM | A498 > 100 µM | OVCAR-3 > 100 µM | LXFL 529 > 100 µM | K562 > 100 µM | SF-295 > 100 µM | DMS-114 > 100 µM | OVCAR-5 > 100 µM | M14 > 100 µM | KM12 > 100 µM | SNB-19 > 100 µM | SNB-75 27.5 µM | UO-31 > 100 µM | SK-MEL-5 > 100 µM | TK-10 > 100 µM | OVCAR-8 > 100 µM | RPMI-8226 > 100 µM | HOP-92 > 100 µM | CAKI-1 > 100 µM | Malme-3M > 100 µM
> 100 µM: HCT-15

O=c1[nH]c2c(nc1NC13CC4CC(CC(C4)C1)C3)c(=O)oc1ccccc12
inactive: DMS-273 62.1 µM | SF-268 > 100 µM | IGROV-1 > 100 µM | EKVX > 100 µM | NCI-H522 61.1 µM | SK-OV-3 > 100 µM | LOX IMVI 31.6 µM | U-251 16.6 µM | NCI-H460 70.3 µM | M19-MEL > 100 µM | SF-539 14.9 µM | HCT-116 > 100 µM | 786-0 > 100 µM | COLO 205 > 100 µM | SW-620 > 100 µM | RXF 393 46.1 µM | CCRF-CEM > 100 µM | DLD-1 23.8 µM | NCI-H226 27.9 µM | HOP-62 50.1 µM | HL-60 > 100 µM | XF498 > 100 µM | HT-29 > 100 µM | SK-MEL-28 > 100 µM | UACC-62 > 100 µM | KM-20L2 > 100 µM | HCC 2998 > 100 µM | NCI-H23 26.2 µM | ACHN > 100 µM | UACC-257 > 100 µM | SN12C > 100 µM | SK-MEL-2 > 100 µM | A549 34 µM | OVCAR-3 > 100 µM | LXFL 529 > 100 µM | MOLT-4 > 100 µM | K562 > 100 µM | DMS-114 > 100 µM | SR > 100 µM | OVCAR-5 > 100 µM | M14 34.3 µM | KM12 > 100 µM | SNB-19 62.2 µM | SNB-75 29.5 µM | UO-31 > 100 µM | SK-MEL-5 36.9 µM | TK-10 > 100 µM | OVCAR-8 32 µM | RPMI-8226 > 100 µM | HOP-92 > 100 µM | CAKI-1 2.46 µM | Malme-3M > 100 µM
> 100 µM: HCT-15
